Columns and labels:
Experiment in all cases: Kinase Selectivity Assay (CEREP, HTRF)
Format in all cases: biochemical
[1] = target: T1, Akt1/PKBa (Homo sapiens, UniProt P31749); details: read-out: % Inhibition at 10 μM Concentration, Akt1/PKBalpha
T1 construct: CEREP, France (ran the assays)
Description: (§1) kinase, ROCK2, RSK2, Src kinase, Syk, and TRKA. The % Inhibition was determined

[2] = target: T2, CDC2/CDK1 (cycB) (Homo sapiens, UniProt P06493); details: read-out: % Inhibition at 10 μM Concentration, CDC2/CDK1
T2 construct: CEREP, France (ran the assays)
Description: as §1

[3] = target: T3, CaMK2a (Homo sapiens, UniProt Q9UQM7); details: read-out: % Inhibition at 10 μM Concentration, CaMK2alpha
T3 construct: CEREP, France (ran the assays)
Description: as §1

[4] = target: T4, ERK1 (Homo sapiens, UniProt P27361); details: read-out: % Inhibition at 10 μM Concentration, ERK1
T4 construct: CEREP, France (ran the assays)
T4 sequence (P27361 whole entry): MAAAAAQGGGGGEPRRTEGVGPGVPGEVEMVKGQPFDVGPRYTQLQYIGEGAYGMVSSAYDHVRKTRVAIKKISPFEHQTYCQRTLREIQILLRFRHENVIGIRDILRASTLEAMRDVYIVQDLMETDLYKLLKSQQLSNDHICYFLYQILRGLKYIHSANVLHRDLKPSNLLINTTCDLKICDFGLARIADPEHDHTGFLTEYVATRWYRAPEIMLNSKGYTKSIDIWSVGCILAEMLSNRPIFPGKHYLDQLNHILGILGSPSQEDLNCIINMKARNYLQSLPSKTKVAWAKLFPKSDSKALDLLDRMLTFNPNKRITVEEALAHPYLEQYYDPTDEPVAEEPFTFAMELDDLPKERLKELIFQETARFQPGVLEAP
Description: as §1

[5] = target: T5, ERK2 (P42mapk) (Homo sapiens, UniProt P28482); details: read-out: % Inhibition at 10 μM Concentration, ERK (P42mapk)
T5 construct: CEREP, France (ran the assays)
Description: as §1

[6] = target: T6, FGFR2 kinase (Homo sapiens, UniProt P21802); details: read-out: % Inhibition at 10 μM Concentration, FGFR2
T6 construct: CEREP, France (ran the assays)
Description: as §1

[7] = target: T7, FLT-1 kinase (VEGFR1) (Homo sapiens, UniProt P17948); details: read-out: % Inhibition at 10 μM Concentration, FLT-1 (VEGFR1)
T7 construct: CEREP, France (ran the assays)
T7 sequence (P17948 27-1338): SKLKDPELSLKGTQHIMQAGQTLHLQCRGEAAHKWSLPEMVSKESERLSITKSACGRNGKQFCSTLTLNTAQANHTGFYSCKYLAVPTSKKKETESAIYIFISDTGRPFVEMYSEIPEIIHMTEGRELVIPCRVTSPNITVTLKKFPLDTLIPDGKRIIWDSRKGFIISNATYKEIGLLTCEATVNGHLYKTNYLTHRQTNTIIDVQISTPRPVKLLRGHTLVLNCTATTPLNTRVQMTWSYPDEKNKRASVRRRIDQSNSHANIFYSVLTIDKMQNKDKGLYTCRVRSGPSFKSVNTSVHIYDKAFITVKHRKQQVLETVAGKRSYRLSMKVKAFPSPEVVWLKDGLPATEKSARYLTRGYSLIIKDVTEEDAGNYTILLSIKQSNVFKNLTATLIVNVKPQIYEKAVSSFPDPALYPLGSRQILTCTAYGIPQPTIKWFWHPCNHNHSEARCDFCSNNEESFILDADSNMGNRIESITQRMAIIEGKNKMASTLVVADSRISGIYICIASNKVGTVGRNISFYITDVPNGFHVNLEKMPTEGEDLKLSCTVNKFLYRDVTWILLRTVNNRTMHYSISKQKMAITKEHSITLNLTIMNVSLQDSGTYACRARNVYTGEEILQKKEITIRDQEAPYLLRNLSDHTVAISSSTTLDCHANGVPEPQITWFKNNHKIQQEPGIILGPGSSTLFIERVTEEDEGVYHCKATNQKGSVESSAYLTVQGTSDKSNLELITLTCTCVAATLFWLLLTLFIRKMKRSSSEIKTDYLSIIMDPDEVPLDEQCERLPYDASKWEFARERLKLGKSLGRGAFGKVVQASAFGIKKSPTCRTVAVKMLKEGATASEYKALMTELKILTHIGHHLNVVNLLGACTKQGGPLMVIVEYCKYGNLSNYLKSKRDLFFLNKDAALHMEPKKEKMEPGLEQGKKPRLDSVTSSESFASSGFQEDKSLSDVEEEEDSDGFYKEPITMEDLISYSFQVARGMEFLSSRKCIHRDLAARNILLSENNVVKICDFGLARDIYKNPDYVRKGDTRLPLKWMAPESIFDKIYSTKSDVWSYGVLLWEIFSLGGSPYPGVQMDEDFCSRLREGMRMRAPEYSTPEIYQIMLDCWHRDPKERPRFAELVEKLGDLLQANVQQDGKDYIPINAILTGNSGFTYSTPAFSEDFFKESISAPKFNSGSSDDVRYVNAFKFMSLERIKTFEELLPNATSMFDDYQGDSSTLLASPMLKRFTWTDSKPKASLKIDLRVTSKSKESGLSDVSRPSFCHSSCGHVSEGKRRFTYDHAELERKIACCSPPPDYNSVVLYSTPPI
Description: as §1

[8] = target: Fyn kinase (Homo sapiens, UniProt P06241); details: read-out: % Inhibition at 10 μM Concentration, Fyn
Description: as §1

[9] = target: IRK (InsR) (Homo sapiens, UniProt P06213); details: read-out: % Inhibition at 10 μM Concentration, IRK (InsR)
Description: as §1

[10] = target: Lck kinase (Homo sapiens, UniProt P06239); details: read-out: % Inhibition at 10 μM Concentration, Lck
Chain of Lck kinase (P06239 whole entry): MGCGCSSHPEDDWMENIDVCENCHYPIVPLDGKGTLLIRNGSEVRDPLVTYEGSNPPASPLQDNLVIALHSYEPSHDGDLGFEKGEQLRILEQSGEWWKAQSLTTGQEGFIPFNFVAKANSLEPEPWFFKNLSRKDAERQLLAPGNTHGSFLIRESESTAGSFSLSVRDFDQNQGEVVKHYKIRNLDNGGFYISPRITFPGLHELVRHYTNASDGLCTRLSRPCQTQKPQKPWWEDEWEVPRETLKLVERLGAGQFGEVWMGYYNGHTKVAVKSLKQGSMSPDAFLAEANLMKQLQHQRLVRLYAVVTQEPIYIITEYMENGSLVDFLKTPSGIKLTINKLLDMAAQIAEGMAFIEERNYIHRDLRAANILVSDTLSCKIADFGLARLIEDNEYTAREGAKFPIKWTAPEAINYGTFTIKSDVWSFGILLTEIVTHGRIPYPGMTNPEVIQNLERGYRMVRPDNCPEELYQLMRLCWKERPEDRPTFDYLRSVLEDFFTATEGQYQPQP
Description: as §1

[11] = target: MAPKAPK2 (Homo sapiens, UniProt P49137); details: read-out: % Inhibition at 10 μM Concentration, MAPKAPK2
Chain of MAPKAPK2 (P49137 whole entry): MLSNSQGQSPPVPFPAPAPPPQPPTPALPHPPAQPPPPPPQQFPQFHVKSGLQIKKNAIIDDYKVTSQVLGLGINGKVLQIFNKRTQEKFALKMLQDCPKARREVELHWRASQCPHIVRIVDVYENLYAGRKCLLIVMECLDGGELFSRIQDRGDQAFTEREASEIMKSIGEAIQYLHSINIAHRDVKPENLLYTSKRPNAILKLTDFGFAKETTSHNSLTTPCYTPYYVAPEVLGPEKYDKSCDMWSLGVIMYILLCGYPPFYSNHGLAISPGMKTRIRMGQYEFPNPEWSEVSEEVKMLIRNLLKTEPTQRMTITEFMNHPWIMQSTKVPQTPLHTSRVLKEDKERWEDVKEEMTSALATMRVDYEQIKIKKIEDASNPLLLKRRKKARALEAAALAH
Description: as §1

[12] = target: MEK1/MAP2K1 (Homo sapiens, UniProt Q02750); details: read-out: % Inhibition at 10 μM Concentration, MEK1/MAP2K1
Description: as §1

[13] = target: PDGFRb kinase (Homo sapiens, UniProt P09619); details: read-out: % Inhibition at 10 μM Concentration, PDGFRbeta
Description: as §1

[14] = target: PKCa (Homo sapiens, UniProt P17252); details: read-out: % Inhibition at 10 μM Concentration, PKCalpha
Description: as §1

[15] = target: PKCb1 (Homo sapiens, UniProt P05771); details: read-out: % Inhibition at 10 μM Concentration, PKCbeta 1
Chain of PKCb1 (P05771 whole entry): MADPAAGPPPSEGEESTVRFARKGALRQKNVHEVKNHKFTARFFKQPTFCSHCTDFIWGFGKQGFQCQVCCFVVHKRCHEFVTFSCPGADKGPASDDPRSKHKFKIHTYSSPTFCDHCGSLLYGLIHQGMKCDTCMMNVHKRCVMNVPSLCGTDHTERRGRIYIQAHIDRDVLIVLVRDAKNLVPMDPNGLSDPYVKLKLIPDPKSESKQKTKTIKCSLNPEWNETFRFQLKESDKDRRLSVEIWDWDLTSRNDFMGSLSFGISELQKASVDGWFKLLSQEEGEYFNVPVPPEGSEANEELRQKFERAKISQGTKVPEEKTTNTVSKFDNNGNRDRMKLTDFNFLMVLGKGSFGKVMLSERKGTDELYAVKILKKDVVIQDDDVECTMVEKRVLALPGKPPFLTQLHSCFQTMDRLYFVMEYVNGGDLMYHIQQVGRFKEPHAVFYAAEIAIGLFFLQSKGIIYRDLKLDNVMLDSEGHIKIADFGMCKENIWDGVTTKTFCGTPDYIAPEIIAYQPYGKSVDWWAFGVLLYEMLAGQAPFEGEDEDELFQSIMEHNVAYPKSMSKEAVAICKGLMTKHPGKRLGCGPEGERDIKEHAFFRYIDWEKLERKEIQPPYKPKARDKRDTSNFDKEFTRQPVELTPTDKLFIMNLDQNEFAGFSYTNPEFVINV
Description: as §1

[16] = target: PKCb2 (Homo sapiens, UniProt P05771); details: read-out: % Inhibition at 10 μM Concentration, PKCbeta 2
Description: as §1

[17] = target: PKCg (Homo sapiens, UniProt P05129); details: read-out: % Inhibition at 10 μM Concentration, PKCgamma
Description: as §1

[18] = target: RSK2 (Homo sapiens, UniProt P51812); details: read-out: % Inhibition at 10 μM Concentration, RSK2
Description: as §1

[19] = target: Ret (Homo sapiens, UniProt P07949); details: read-out: % Inhibition at 10 μM Concentration, Ret
Chain of Ret (P07949 29-1114): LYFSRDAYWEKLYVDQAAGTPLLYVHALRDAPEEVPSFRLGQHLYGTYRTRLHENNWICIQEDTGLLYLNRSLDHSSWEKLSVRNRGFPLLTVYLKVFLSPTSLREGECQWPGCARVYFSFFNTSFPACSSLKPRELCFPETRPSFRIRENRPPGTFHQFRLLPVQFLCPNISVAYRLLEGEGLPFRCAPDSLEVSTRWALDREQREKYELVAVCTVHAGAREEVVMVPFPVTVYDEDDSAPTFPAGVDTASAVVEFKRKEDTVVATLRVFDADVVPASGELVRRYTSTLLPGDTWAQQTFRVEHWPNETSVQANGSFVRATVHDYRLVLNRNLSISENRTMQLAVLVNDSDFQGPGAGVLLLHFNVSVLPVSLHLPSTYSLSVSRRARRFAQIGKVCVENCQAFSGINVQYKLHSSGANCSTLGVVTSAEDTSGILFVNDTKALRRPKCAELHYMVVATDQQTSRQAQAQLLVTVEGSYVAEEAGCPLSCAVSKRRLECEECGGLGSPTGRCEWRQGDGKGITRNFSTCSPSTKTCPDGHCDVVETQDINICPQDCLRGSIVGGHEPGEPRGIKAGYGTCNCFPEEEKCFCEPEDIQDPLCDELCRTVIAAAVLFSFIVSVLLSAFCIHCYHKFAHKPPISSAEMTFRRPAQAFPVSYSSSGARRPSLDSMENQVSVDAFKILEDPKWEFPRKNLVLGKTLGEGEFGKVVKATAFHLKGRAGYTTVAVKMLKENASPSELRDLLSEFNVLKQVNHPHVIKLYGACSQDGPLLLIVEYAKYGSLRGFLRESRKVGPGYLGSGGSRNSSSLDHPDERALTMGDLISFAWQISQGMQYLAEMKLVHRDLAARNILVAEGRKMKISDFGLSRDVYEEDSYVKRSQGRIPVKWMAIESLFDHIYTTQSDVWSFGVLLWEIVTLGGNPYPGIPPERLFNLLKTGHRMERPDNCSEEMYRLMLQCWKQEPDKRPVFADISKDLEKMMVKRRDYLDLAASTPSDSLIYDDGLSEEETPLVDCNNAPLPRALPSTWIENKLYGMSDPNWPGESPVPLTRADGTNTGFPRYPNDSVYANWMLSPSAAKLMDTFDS
Description: as §1

[20] = target: T8, c-Met kinase (Homo sapiens, UniProt P08581); details: read-out: % Inhibition at 10 μM Concentration, c-Met
T8 construct: CEREP, France (ran the assays)
Description: as §1

[21] = target: T9, p38g kinase (Homo sapiens, UniProt P53778); details: read-out: % Inhibition at 10 μM Concentration, p38gamma
T9 sequence (P53778 1-367): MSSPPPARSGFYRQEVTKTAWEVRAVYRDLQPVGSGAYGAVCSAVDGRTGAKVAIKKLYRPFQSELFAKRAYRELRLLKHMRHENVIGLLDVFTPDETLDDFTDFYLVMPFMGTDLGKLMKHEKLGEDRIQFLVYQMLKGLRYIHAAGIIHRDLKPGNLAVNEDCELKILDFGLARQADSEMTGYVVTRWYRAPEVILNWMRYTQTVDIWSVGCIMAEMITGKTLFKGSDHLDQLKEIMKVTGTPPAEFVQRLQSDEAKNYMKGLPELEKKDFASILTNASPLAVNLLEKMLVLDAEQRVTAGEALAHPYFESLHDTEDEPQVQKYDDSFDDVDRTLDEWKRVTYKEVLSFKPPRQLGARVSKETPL
Description: as §1

[22] = target: Syk (Homo sapiens, UniProt P43405); details: read-out: % Inhibition at 10 μM Concentration, Syk
Description: as §1

SMILES	inhibition at 10 µM [1] [%]	inhibition at 10 µM [2] [%]	inhibition at 10 µM [3] [%]	inhibition at 10 µM [4] [%]	inhibition at 10 µM [5] [%]	inhibition at 10 µM [6] [%]	inhibition at 10 µM [7] [%]	inhibition at 10 µM [8] [%]	inhibition at 10 µM [9] [%]	inhibition at 10 µM [11] [%]	inhibition at 10 µM [12] [%]	inhibition at 10 µM [13] [%]	inhibition at 10 µM [14] [%]	inhibition at 10 µM [15] [%]	inhibition at 10 µM [16] [%]	inhibition at 10 µM [17] [%]	inhibition at 10 µM [18] [%]	inhibition at 10 µM [19] [%]	inhibition at 10 µM [20] [%]	inhibition at 10 µM [21] [%]	further results
O=C1Nc2ccccc2/C1=C\c1ccc2c(/C=C/c3ccccc3Cl)n[nH]c2c1 [Example A60, (E)-3-((3-((E)-2-chlorostyryl)-1H-indazol-6-yl)methylene)indolin-2-one]	-14	18	-2	1	2	10	42	70	6	19	16	2	-1	0	4	3	0	33	0	10	inhibition at 10 µM [10]: 30%
O=C1Nc2ccccc2C1=Cc1ccc2c(/C=C/c3ccccn3)n[nH]c2c1 (mixture of isomers) [Example A41, (E and Z)-3-((3-((E)-2-(pyridin-2-yl)vinyl)-1H-indazol-6-yl)methylene)indolin-2-one]	-3	62	31	13	14	97	99	91	34	0	46	100	2	-2	12	0	38	98	35	2	inhibition at 10 µM [10]: 88%; inhibition at 10 µM [22]: 70%
COc1ccc2c(c1)C(=Cc1ccc3c(-c4ccc(N5CCN(C)CC5)nc4)n[nH]c3c1)C(=O)N2 (mixture of isomers) [Example A97, (E and Z)-5-methoxy-3-((3-(6-(4-methylpiperazin-1-yl)pyridin-3-yl)-1H-indazol-6-yl)methylene)indolin-2-one]	-4	15	14	10	-9	35	73	13	9	4	9	0	9	2	37	0	37	93	28	1	inhibition at 10 µM [10]: 89%; inhibition at 10 µM [22]: 21%
O=C1Nc2ccccc2/C1=C\c1ccc2[nH]nnc2c1 [Example A1, (E)-3-((1H-benzo[d][1,2,3]triazol-5-yl)methylene)indolin-2-one]	-3	2	4	6	3	68	0	24	13	6	20	46	9	1	0	9	4	67	-20	14	inhibition at 10 µM [22]: -2%
O=C1Nc2ccccc2/C1=C\c1ccc2cn[nH]c2c1 [Example A5, (E)-3-((1H-indazol-6-yl)methylene)indolin-2-one]	-4	9	-3	6	0	31	16	5	12	0	3	19	0	-5	2	-6	1	41	2	5	inhibition at 10 µM [10]: 0%; inhibition at 10 µM [22]: -3%

Reference: US8765748B2, “Indazolyl, benzimidazolyl, benzotriazolyl substituted indolinone derivatives as kinase inhibitors useful in the treatment of cancer” (University Health Network, priority 2007, dated 2014)
